Assay results published in patent US6461997B1, “Triazole sulfones having herbicidal activity” (Monsanto Technology LLC, priority 1999, dated 2002).

Experiments:
[1] = test system: AGSST (creeping bentgrass); assay: Pre-emergence herbicidal activity, cool season; type: in vivo, Agrostis stolonifera; details: GR80 = lowest tested rate (300, 100, 30, 10 g/ha) with 80% or greater inhibition; approx. 14 days after treating; 18/13° C.
Method: (§1) Tables 5 to 8 summarize results of tests conducted as described below to determine the pre-emergence herbicidal activity, in the form of a GR80 value, of illustrative compounds of this invention. […] Compounds of the invention were typically applied at rates of 300, 100, 30, and 10 g/ha. Where herbicidal activity was evident but 80% inhibition was not achieved at the highest rate tested, an asterisk (*) is shown in the following tables.
(§2) The pre-emergence tests were conducted by the following procedure. Topsoil was sieved to pass through a 1.27 cm screen. Fertilizer was added to the topsoil and the mixture was then sterilized by heating. The topsoil mixture was placed in a pot and compacted to a depth of 1.0 to 1.25 cm from the top of the pot. Seeds of each of several monocotyledonous and dicotyledonous annual plant species were placed on top of the soil. Additional soil was subsequently placed over the seeds to level-fill the pot. A known amount of each test compound dissolved or suspended in an appropriate organic solvent was diluted with a 50:50 mix of acetone and water and applied to the surface of the soil. After treatment the plants were placed in a greenhouse where they received 0.64 cm of overhead irrigation. All subsequent watering consisted of a light overhead mist and/or subirrigation as needed for germination and growth. Tables 5 and 6 below relate to warm season plant species which were placed after pre-emergence treatment in a greenhouse with a 30/21° C. day/night temperature regime. Tables 7 and 8 below relates to cool season plant species placed after pre-emergence treatment in a greenhouse or growth chamber with an 18/13° C. day/night temperature regime.
(§3) Approximately 14 days after planting and treating, the plants were observed and herbicidal efficacy recorded as percent inhibition by comparison with untreated plants.
(§4) The plant species usually regarded as weeds which were utilized in the tests are identified in the tables below according to the following legend, in which “d” indicates a dicotyledonous species and “m” a monocotyledonous species. All monocotyledonous species included in the tests herein are grasses.

[2] = test system: PANMI (wild proso millet); assay: Pre-emergence herbicidal activity, warm season; type: in vivo, Panicum miliaceum; details: GR80 = lowest tested rate (300, 100, 30, 10 g/ha) with 80% or greater inhibition; approx. 14 days after treating; 30/21° C.
Method: as §1, §2, §3, §4

ALOMY (blackgrass) = assay: Pre-emergence herbicidal activity, cool season; type: in vivo, Alopecurus myosuroides; details: GR80 = lowest tested rate (300, 100, 30, 10 g/ha) with 80% or greater inhibition; approx. 14 days after treating; 18/13° C.
Method: as §1, §2, §3, §4

[3] = test system: GALAP (catchweed bedstraw); assay: Pre-emergence herbicidal activity, cool season; type: in vivo, Galium aparine; details: lowest tested rate with 80% or greater inhibition; rates 300, 100, 30, 10 g/ha; about 14 days
Method: as §1, §2, §3, §4

SOLNI (black nightshade) = assay: Pre-emergence herbicidal activity, warm season; type: in vivo, Solanum nigrum; details: GR80 = lowest tested rate (300, 100, 30, 10 g/ha) with 80% or greater inhibition; approx. 14 days after treating; 30/21° C.
Method: as §1, §2, §3, §4

[4] = test system: SORHA (johnsongrass (seedling)); assay: Pre-emergence herbicidal activity, warm season; type: in vivo, Sorghum halepense; details: GR80 = lowest tested rate (300, 100, 30, 10 g/ha) with 80% or greater inhibition; approx. 14 days after treating; 30/21° C.
Method: as §1, §2, §3, §4

AMARE (redroot pigweed) = assay: Pre-emergence herbicidal activity, warm season; type: in vivo, Amaranthus retroflexus; details: GR80 = lowest tested rate (300, 100, 30, 10 g/ha) with 80% or greater inhibition; approx. 14 days after treating; 30/21° C.
Method: as §1, §2, §3, §4

POLCO (wild buckwheat) = assay: Pre-emergence herbicidal activity, cool season; type: in vivo, Polygonum convolvulus; details: lowest tested rate with 80% or greater inhibition; rates 300, 100, 30, 10 g/ha; about 14 days
Method: as §1, §2, §3, §4

[5] = test system: CHEAL (common lambsquarters); assay: Pre-emergence herbicidal activity, warm season; type: in vivo, Chenopodium album; details: GR80 = lowest tested rate (300, 100, 30, 10 g/ha) with 80% or greater inhibition; approx. 14 days after treating; 30/21° C.
Method: as §1, §2, §3, §4

[6] = test system: LAMPU (purple deadnettle); assay: Pre-emergence herbicidal activity, cool season; type: in vivo, Lamium purpureum; details: lowest tested rate with 80% or greater inhibition; rates 300, 100, 30, 10 g/ha; about 14 days
Method: as §1, §2, §3, §4

SETVI (green foxtail) = assay: Pre-emergence herbicidal activity, cool season; type: in vivo, Setaria viridis; details: GR80 = lowest tested rate (300, 100, 30, 10 g/ha) with 80% or greater inhibition; approx. 14 days after treating; 18/13° C.
Method: as §1, §2, §3, §4

[7] = test system: VERPE (creeping speedwell); assay: Pre-emergence herbicidal activity, cool season; type: in vivo, Veronica persicaria; details: lowest tested rate with 80% or greater inhibition; rates 300, 100, 30, 10 g/ha; about 14 days
Method: as §1, §2, §3, §4

SETFA (giant foxtail) = assay: Pre-emergence herbicidal activity, warm season; type: in vivo, Setaria faberi; details: GR80 = lowest tested rate (300, 100, 30, 10 g/ha) with 80% or greater inhibition; approx. 14 days after treating; 30/21° C.
Method: as §1, §2, §3, §4

POROL (common purslane) = assay: Pre-emergence herbicidal activity, warm season; type: in vivo, Portulaca oleracea; details: GR80 = lowest tested rate (300, 100, 30, 10 g/ha) with 80% or greater inhibition; approx. 14 days after treating; 30/21° C.
Method: as §1, §2, §3, §4

[8] = test system: CIRAR (canada thistle (seedling)); assay: Pre-emergence herbicidal activity, warm season; type: in vivo, Cirsium arvense; details: GR80 = lowest tested rate (300, 100, 30, 10 g/ha) with 80% or greater inhibition; approx. 14 days after treating; 30/21° C.
Method: as §1, §2, §3, §4

SASKR (russian thistle) = assay: Pre-emergence herbicidal activity, cool season; type: in vivo, Salsola kali; details: lowest tested rate with 80% or greater inhibition; rates 300, 100, 30, 10 g/ha; about 14 days
Method: as §1, §2, §3, §4

STEME (common chickweed) = assay: Pre-emergence herbicidal activity, cool season; type: in vivo, Stellaria media; details: lowest tested rate with 80% or greater inhibition; rates 300, 100, 30, 10 g/ha; about 14 days
Method: as §1, §2, §3, §4

SINAR (wild mustard) = assay: Pre-emergence herbicidal activity, cool season; type: in vivo, Sinapis arvensis; details: lowest tested rate with 80% or greater inhibition; rates 300, 100, 30, 10 g/ha; about 14 days
Method: as §1, §2, §3, §4

ECHCG (barnyardgrass) = assay: Pre-emergence herbicidal activity, warm season; type: in vivo, Echinochloa crus-galli; details: GR80 = lowest tested rate (300, 100, 30, 10 g/ha) with 80% or greater inhibition; approx. 14 days after treating; 30/21° C.
Method: as §1, §2, §3, §4

[9] = test system: BRAPP (broadleaf signalgrass); assay: Pre-emergence herbicidal activity, warm season; type: in vivo, Brachiaria platyphylla; details: GR80 = lowest tested rate (300, 100, 30, 10 g/ha) with 80% or greater inhibition; approx. 14 days after treating; 30/21° C.
Method: as §1, §2, §3, §4

DIGSA (large crabgrass) = assay: Pre-emergence herbicidal activity, warm season; type: in vivo, Digitaria sanguinalis; details: GR80 = lowest tested rate (300, 100, 30, 10 g/ha) with 80% or greater inhibition; approx. 14 days after treating; 30/21° C.
Method: as §1, §2, §3, §4

SMILES: O=C(N1CCCC1)n1cnc(S(=O)(=O)C(F)(F)C(F)F)n1 [Example 71]
- Pre-emergence activity (GR80) AGSST [1]: 100 g/ha
- Pre-emergence activity (GR80) PANMI [2]: 300 g/ha
- Pre-emergence activity (GR80) ALOMY (ALOMY (blackgrass)): 300 g/ha
- Pre-emergence activity GR80, GALAP [3]: 100 g/ha
- Pre-emergence activity (GR80) SOLNI (SOLNI (black nightshade)): 300 g/ha
- Pre-emergence activity (GR80) SORHA [4]: 300 g/ha
- Pre-emergence activity (GR80) AMARE (AMARE (redroot pigweed)): 300 g/ha
- Pre-emergence activity GR80, POLCO (POLCO (wild buckwheat)): 300 g/ha
- Pre-emergence activity (GR80) CHEAL [5]: 30 g/ha
- Pre-emergence activity GR80, LAMPU [6]: 300 g/ha
- Pre-emergence activity (GR80) SETVI (SETVI (green foxtail)): 100 g/ha
- Pre-emergence activity GR80, VERPE [7]: [empty]
- Pre-emergence activity (GR80) SETFA (SETFA (giant foxtail)): 300 g/ha
- Pre-emergence activity (GR80) POROL (POROL (common purslane)): 300 g/ha
- Pre-emergence activity (GR80) CIRAR [8]: 300 g/ha
- Pre-emergence activity GR80, SASKR (SASKR (russian thistle)): [empty]
- Pre-emergence activity GR80, STEME (STEME (common chickweed)): 300 g/ha
- Pre-emergence activity GR80, SINAR (SINAR (wild mustard)): [empty]

SMILES: O=C(N1CCCC1)n1cnc(S(=O)(=O)C(F)(F)C(F)F)n1 [Example 59]
- Pre-emergence activity (GR80) AGSST [1]: 300 g/ha
- Pre-emergence activity (GR80) PANMI [2]: 100 g/ha
- Pre-emergence activity (GR80) ALOMY (ALOMY (blackgrass)): 300 g/ha
- Pre-emergence activity GR80, GALAP [3]: 100 g/ha
- Pre-emergence activity (GR80) SOLNI (SOLNI (black nightshade)): 300 g/ha
- Pre-emergence activity (GR80) SORHA [4]: 100 g/ha
- Pre-emergence activity (GR80) AMARE (AMARE (redroot pigweed)): 100 g/ha
- Pre-emergence activity GR80, POLCO (POLCO (wild buckwheat)): 300 g/ha
- Pre-emergence activity (GR80) CHEAL [5]: 100 g/ha
- Pre-emergence activity (GR80) ECHCG (ECHCG (barnyardgrass)): 300 g/ha
- Pre-emergence activity GR80, LAMPU [6]: 100 g/ha
- Pre-emergence activity (GR80) SETVI (SETVI (green foxtail)): 300 g/ha
- Pre-emergence activity GR80, VERPE [7]: [empty]
- Pre-emergence activity (GR80) SETFA (SETFA (giant foxtail)): 300 g/ha
- Pre-emergence activity (GR80) BRAPP [9]: 100 g/ha
- Pre-emergence activity (GR80) CIRAR [8]: 300 g/ha
- Pre-emergence activity GR80, SASKR (SASKR (russian thistle)): [empty]
- Pre-emergence activity GR80, STEME (STEME (common chickweed)): 300 g/ha
- Pre-emergence activity (GR80) DIGSA (DIGSA (large crabgrass)): 30 g/ha
- Pre-emergence activity GR80, SINAR (SINAR (wild mustard)): [empty]
